# Test results taken from the Kinase Knowledgebase extract (Sharma et al. 2016).
# Molecular target: MAPK14 (human) (UniProt Q16539)
# Assay: Assessment of MAPK14 Kinase Activity by Fluorescence Anisotropy Kinase Binding Assay
# Sequence of MAPK14 (human) (Q16539 whole entry, looked up): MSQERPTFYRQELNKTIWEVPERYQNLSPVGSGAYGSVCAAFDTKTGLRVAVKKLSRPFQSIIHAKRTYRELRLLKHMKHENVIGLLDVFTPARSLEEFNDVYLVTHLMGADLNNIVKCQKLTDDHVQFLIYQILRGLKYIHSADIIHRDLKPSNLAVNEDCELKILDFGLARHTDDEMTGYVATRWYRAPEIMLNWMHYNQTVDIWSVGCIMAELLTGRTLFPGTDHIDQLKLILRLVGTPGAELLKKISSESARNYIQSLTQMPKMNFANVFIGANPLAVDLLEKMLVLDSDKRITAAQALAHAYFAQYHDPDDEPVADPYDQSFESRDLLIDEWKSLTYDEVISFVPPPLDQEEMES
Ki [µM],IC50 [µM],Compound
0.02,,O=c1ccc2c(-c3ccccc3Cl)nc(Br)cc2n1-c1ccccc1Cl
,< 1,O=c1ccc2c(-c3ccccc3F)cccc2n1-c1ccc(F)cc1
0.02,,O=c1ccc2c(-c3ccccc3Cl)cc(NC(CO)CO)cc2n1-c1ccccc1Cl
,< 1,O=c1ccc2c(-c3ccc(F)cc3)ccnc2n1-c1ccc(F)cc1
0.0126,,COc1cc2c(ccc(=O)n2-c2ccccc2Cl)c(-c2ccccc2Cl)c1Br
,< 1,O=c1ccc2c(-c3ccc(F)cc3)cccc2n1-c1ccc(F)cc1
,< 1,O=c1ccc2c(-c3ccc(F)cc3F)cccc2n1-c1ccc(F)cc1
0.02,,O=c1ccc2c(-c3ccccc3)nccc2n1Cc1ccccc1
,< 1,O=c1ccc2c(-c3ccc(F)cc3F)ccnc2n1-c1ccc(F)cc1
,< 1,O=c1ccc2c(-c3ccccc3)nccc2[nH]1
0.02,,O=c1ccc2c(-c3ccccc3Cl)nc(Cl)cc2n1-c1ccccc1Cl
